Experimental data reported in patent US8076294B2, “Collagen-related peptides and uses thereof” (Advanced Technologies and Regenerative Medicine, LLC., priority 2007, dated 2011).
Entries after “also recorded” stand apart in the source; their conditions may differ. Blank lines part the entries; values can stand above or below the compound they belong to.

Tests used:
human platelets = experiment: Human platelet aggregation assay (washed platelets, optical density 650 nm); format: cell-based; settings: for EC50 ± SEM, platelet aggregation: Table 3
Protocol: Human platelet-rich plasma (PRP) concentrate from healthy volunteers was purchased from Biological Specialties, Inc. (Colmar, Pa.). […] The PRP was centrifuged at 730 g for 15 min. The resulting platelet pellet was washed twice in CGS buffer (13 mM sodium citrate, 30 mM glucose, 120 mM NaCl, pH 6.5) containing 1 U/mL apyrase (grade V, Sigma-Aldrich) and resuspended in Tyrode's buffer (140 mM NaCl, 2.7 mM KCl, 12 mM NaHCO3, 0.76 mM Na2HPO4, 5.5 mM dextrose, 5.0 mM Hepes, 0.2% BSA, pH 7.4). The “washed” platelets were diluted to 3×10^8 platelets/mL and kept >45 min at 37° C. before use.
For the assay, 105 μL of washed platelets, 2 mM CaCl2 and […] of fibrinogen were added to a 96-well microtiter plate. Platelet aggregation was initiated by the addition of serial concentrations of native collagen fibrils (equine type I; 92% identity with human collagen sequence; Chrono-log Corp., Havertown, Pa.) or test peptides. Buffer was added to one set of control wells. The assay plate was stirred constantly and intermittently placed in a microplate reader (Softmax, Molecular Devices, Menlo Park, Calif.) to read optical density (650 nm) at 0 and 5 min after the addition of the compound solutions. Aggregation was calculated as the decrease in optical density between the time-0 and 5-min measurements and expressed as percent of aggregation.
Peptides were dissolved in PBS (pH 7) or water (final pH 5) to a concentration of 2 mg/mL. Some samples were heated in a water bath (70° C.) for 10 min, filtered through a 0.45-μm filter and incubated for 24 h or 7 days at 4° C.

integrin GPIIb/IIIa = molecular target: T1, integrin GPIIb/IIIa (Homo sapiens, UniProt P05106+P08514); experiment: Inhibition by elarofiban of platelet aggregation induced by collagen or CRP trimer SEQ ID 25; format: cell-based
T1 construct: Washed platelets were incubated with various elarofiban doses; host or cells: washed human platelets from PRP of healthy volunteers
T1 sequence (P08514 32-887 limits assumed): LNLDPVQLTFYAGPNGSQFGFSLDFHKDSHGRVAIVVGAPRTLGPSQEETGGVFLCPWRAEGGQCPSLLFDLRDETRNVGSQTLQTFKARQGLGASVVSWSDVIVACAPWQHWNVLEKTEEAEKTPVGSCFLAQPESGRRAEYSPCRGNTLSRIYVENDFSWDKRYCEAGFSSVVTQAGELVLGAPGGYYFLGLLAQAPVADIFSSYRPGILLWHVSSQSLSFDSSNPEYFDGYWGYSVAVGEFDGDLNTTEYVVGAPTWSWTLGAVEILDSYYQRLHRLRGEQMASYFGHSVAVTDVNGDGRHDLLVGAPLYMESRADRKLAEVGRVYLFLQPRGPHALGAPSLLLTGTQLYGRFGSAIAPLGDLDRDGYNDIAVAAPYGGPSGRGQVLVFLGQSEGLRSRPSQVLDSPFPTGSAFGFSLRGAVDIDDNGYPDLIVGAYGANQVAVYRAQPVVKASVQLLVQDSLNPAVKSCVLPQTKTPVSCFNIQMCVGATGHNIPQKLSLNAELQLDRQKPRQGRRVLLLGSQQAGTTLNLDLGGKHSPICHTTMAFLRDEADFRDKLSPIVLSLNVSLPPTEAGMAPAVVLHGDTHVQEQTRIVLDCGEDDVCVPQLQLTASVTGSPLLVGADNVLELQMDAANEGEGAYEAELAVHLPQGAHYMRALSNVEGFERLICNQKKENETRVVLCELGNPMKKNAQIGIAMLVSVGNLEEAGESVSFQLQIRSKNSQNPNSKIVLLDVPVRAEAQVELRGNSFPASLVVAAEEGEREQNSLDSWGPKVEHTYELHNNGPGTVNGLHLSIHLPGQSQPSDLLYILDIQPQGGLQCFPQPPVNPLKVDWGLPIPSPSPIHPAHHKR
T1 sequence (P08514 891-1039 partner limits assumed): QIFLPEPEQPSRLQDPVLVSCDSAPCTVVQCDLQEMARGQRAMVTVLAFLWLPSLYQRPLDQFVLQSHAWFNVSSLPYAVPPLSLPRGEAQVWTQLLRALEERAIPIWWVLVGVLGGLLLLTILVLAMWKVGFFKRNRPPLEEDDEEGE
T1 sequence (P05106 27-788): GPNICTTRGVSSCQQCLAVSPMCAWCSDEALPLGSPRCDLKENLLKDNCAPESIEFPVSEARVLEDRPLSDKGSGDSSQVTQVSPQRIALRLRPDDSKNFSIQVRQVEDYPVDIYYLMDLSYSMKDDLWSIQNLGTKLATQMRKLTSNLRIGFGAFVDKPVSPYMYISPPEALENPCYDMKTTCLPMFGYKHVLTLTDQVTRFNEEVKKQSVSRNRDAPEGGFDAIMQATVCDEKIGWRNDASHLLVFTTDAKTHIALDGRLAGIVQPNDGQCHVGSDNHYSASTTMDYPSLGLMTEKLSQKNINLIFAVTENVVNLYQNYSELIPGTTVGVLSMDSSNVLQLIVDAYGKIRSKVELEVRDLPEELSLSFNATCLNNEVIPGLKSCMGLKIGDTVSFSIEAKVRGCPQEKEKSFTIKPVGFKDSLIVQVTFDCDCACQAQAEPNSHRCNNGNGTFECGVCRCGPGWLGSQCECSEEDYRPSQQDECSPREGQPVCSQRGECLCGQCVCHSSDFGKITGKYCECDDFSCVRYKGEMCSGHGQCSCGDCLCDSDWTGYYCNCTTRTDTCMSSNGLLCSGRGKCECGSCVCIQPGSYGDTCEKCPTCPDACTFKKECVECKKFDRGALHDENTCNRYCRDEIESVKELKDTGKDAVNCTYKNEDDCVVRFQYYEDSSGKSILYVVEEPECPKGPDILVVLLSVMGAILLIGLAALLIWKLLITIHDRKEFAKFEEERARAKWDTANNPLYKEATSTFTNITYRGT

EC50 values (±SEM), platelet aggregation (human platelets; Example 6, FIG. 1, Table 4): 0.56 ± 0.09 µg/mL
EC50 ± SEM, platelet aggregation (human platelets; native collagen fibrils (equine type I), no preparation conditions given): 0.25 µg/mL
Compound: Collagen

Compound: (Pro-Hyp-Gly)10 [SEQ ID 34]
Stimulation of platelet aggregation (in words) (human platelets; Example 6, FIG. 1): not effective
EC50 ± SEM, platelet aggregation (human platelets; peptide in PBS, H + F, pH 7, incubation 24 h): failed to aggregate platelets; also recorded: Not Active

Inhibition of platelet aggregation induced by the CRP trimer having SEQ ID 25 (integrin GPIIb/IIIa; washed platelets incubated with 10, 100 and 1000 nM for 5 min before SEQ ID 25): dose-dependent inhibition
Inhibition of platelet aggregation induced by collagen (integrin GPIIb/IIIa; washed platelets incubated with 10, 100 and 1000 nM for 5 min before collagen): dose-dependent inhibition
Compound: O=C(O)C[C@H](NC(=O)[C@@H]1CCCN(C(=O)CCC2CCNCC2)C1)c1cccnc1 [elarofiban]
